Activity calls are given as the source filed them. The calls are words filed in the database; no cut-off is given here.
Test system: Jurkat
Experiment: Induction of calcium ion mobilization in intact Jurkat cells
Type: functional, cell-based
Conditions: Homo sapiens

O=c1c2nc(-c3ccccc3)n3c2ncn1[C@@H]1O[C@H](COP(=O)(O)OP(=O)(O)OC[C@H]2O[C@@H]3[C@H](O)[C@@H]2O)[C@@H](O)[C@H]1O
Activity: Active

O=c1c2nc(I)n3c2ncn1[C@@H]1O[C@H](COP(=O)(O)OP(=O)(O)OC[C@H]2O[C@@H]3[C@H](O)[C@@H]2O)[C@@H](O)[C@H]1O
Activity: Active

From ChEMBL document CHEMBL1146845, “Structural determinants for N1/N7 cyclization of nicotinamide hypoxanthine 5'-dinucleotide (NHD+) derivatives by ADP-ribosyl cyclase from aplysia californica: Ca2+-mobilizing activity of 8-substituted cyclic inosine 5'-diphosphoribose analogues in T-lymphocytes” (J Med Chem, 2006)
